Results on three compounds are retold here after patent US11390602B2, “N-alkyl-N-cyanoalkylbenzamide compound and use thereof” (JIANGSU FLAG CHEMICAL INDUSTRY CO., LTD., priority 2017, dated 2022).

In this assay the test system is Plutella xylostella. Briefly: Insecticidal effect on Plutella xylostella (leaf disc immersion). Format: in vivo. The note with it: foliar, 72 h, read-out: insecticidal activity on Plutella xylostella (mortality %). Here is the method: The test reagents were all dissolved in a mixed solvent of acetone:N′N′-dimethylcarboxamide (1:1) to give a 1000 mg/L solution. 1% Tween-80 was added as an emulsifier to each solution. These solutions were then diluted with 1% Tween-20 solution in water to give desired concentrations of test solutions. An aqueous solution containing 1% Tween-20 was used as a control.
Third instar larvae of Plutella xylostella were used. Cabbages were washed, air dried, punched into leaf discs, immersed in reagent solutions for 10 sec, taken out, naturally dried and then placed in a Petri dish. 10 third-instar larvae of Plutella xylostella were inoculated to each Petri dish, and three replicates were set. The number of deaths in 3 days was investigated, and the mortality was calculated.

[1] abbreviates: concentration 0.05 ppm, third instar larvae, 3 days.
[2] abbreviates: concentration 0.5 ppm, third instar larvae, 3 days.

Like-named read-outs stand apart in the source and are kept apart here.

In general, mortality refers to the percentage killed. Consider `CC(C)(C#N)NC(=O)c1cc(Cl)cc(Cl)c1NC(=O)c1cc(Br)nn1-c1ncccc1Cl` [KC2], for which the mortality at 0.01 ppm (concentration 0.01 ppm, third instar larvae, 3 days) was 28.1%. Besides, the mortality at 0.05 ppm under setting [1] was 51.4%. Under setting [2], the mortality at 0.5 ppm was 88.2%.
Take `Cc1cc(Cl)cc(C(=O)NC(C)(C)C#N)c1NC(=O)c1cc(Br)nn1-c1ncccc1Cl` [KC1]: under setting [1], the mortality at 0.05 ppm amounted to 45.7%. Further, the mortality at 0.5 ppm under setting [2] turned out to be 71.9%.
Consider `CN(C(=O)c1cc(Cl)cc(Cl)c1NC(=O)c1cc(Br)nn1-c1ncccc1Cl)C(C)(C)C#N` [Compound 1.15, N-(6-N-((2-cyanopropan-2-yl)-N-methylcarbamoyl)-2,4-dichlorophenyl)-1-(3-chloropyridin-2-yl)-3-bromo-1H-pyrazol-5-carboxamide], for which the mortality at 0.01 ppm was determined as 66.7%, the mortality at 0.05 ppm amounted to 86.7% and the mortality at 0.5 ppm was found to be 100%.
